Assay results from patent US12453709B2, “Compositions and methods for treating autism” (priority 2013, dated 2025).

Assays:
[1] = tested on: patients qualified under the DSM-5 definition of autism; experiment: Example 4: Aberrant Behavior Checklist-Community (ABC-C); type: in vivo, human; conditions: for ABC irritability / ABC lethargy / ABC speech / ABC stereotypy / ABC hyperactivity / ABC TOTAL: PT RS; for ABC irritability: initial 3; for ABC lethargy: initial 6; for ABC speech: initial 8; for ABC TOTAL: initial 53
Description: α-methyl-DL tyrosine (AMPT) was administered to 3 patients. This group of patients was qualified under the DSM-5 definition of autism and treated. The Aberrant Behavior Checklist-Community (ABC-C), Autism Diagnostic Observation Schedule (ADOS), Conners Parent Rating Scale (CPRS), and General Clinical Impressions scale were used to assess the disease. Videos were taken at each visit.

[2] = tested on: male patients diagnosed with autism; experiment: Study HT 02-121: Clinical Global Impression (CGI) rating scales; type: in vivo, human; conditions: for CGI-I Mean Change from Baseline / CGI-I Treatment effect versus placebo / CGI-I change from Baseline, median / CGI-S Mean Change from Baseline / CGI-S Treatment effect versus placebo / CGI-S change from Baseline, median: Week 4/LOCF
Description: This clinical study was a randomized double-blind, placebo-controlled two-cohort, 4-week dose-escalation study that incorporated two open-label treatment groups to assess the safety and efficacy of L1-79 100 mg and 200 mg TID in male patients between the ages of […] years of age diagnosed with autism. The first cohort of 20 patients was comprised of three groups of patients: The first group of five patients received open-label L1-79 100 mg TID and underwent PK and EKG assessments. The remaining two groups in this cohort consisted of 15 patients randomized on a 2:1 basis to receive L1-79 100 mg TID or placebo. The PK and safety data from the open-label L1-79 100 mg TID group was submitted to FDA for review and acceptance before the second cohort was enrolled. The second cohort was procedurally identical to the first. The second cohort of 20 patients was comprised of the same three groups of patients but a dose of 200 mg TID was used instead of 100 mg TID. The key inclusion criteria were as follows: (1) males between 13 and 21 years of age, (2) DSM-5 compliant diagnosis of autism spectrum disorder, confirmed by the Autistic Diagnosis Interview Review (ADIR), and by an ADOS-2 score consistent with a diagnosis of autism, (3) must have been stable on no more than one concomitant medication and no planned changes in psychosocial interventions during the study.
The primary efficacy endpoint was the determination of the clinical improvement by the investigator as documented by the Clinical Global Impression (CGI) rating scales. Additional efficacy endpoints included: (1) changes from baseline in the Socialization and Communication Domains of the Vineland Adaptive Behavior Scales, Second Edition (VABS II) parent/caregiver rating form, (2) changes from baseline in the ADOS-2 Total Score and subscores, (3) changes in the Social Responsiveness Scale, Second Edition (SRS-2) Total Score and subscales, (4) changes in the ABC-C domains, (5) changes in the Repetitive Behavior Scale-Revised (RBS-R) Total Score and subscales. Given the exploratory design of this study only descriptive statistics were planned. […]
Responder definitions for CGI-S were defined as improvement only (instead of improvement or no change) since, unlike the other measures which were performed weekly, the CGI-S requires the clinician to give an overall assessment of the patients' clinical symptom severity based on all of the outcome measures and their movement over the entirety of the study.

With `CC(N)(Cc1ccc(O)cc1)C(=O)O` (racemic) [L1-79, α-methyl-DL-tyrosine] the ABC-C speech ([1]; PT LR, Day 7, initial 5) was 7, the ABC-C stereotypy ([1]; PT LR, Day 7, initial 13) was 5 and the ABC-C irritability ([1]; PT LR, Day 7, initial 21) was 16. For the same molecule, the ABC-C lethargy ([1]; PT LR, Day 7, initial 31) was 12, the ABC-C hyperactivity ([1]; PT LR, Day 7, initial 34) was 31 and the “ABC-C TOTAL” value ([1]; PT LR, Day 7, initial 114) was 71. The ABC-C speech ([1]; PT LR, Day 14, initial 5) was 7, the ABC-C stereotypy ([1]; PT LR, Day 14, initial 13) was 0 and the ABC-C irritability ([1]; PT LR, Day 14, initial 21) was 16. The ABC-C lethargy ([1]; PT LR, Day 14, initial 31) was 8, the ABC-C hyperactivity ([1]; PT LR, Day 14, initial 34) was 24 and the “ABC-C TOTAL” value ([1]; PT LR, Day 14, initial 114) was 55. The ABC-C speech ([1]; PT LR, Day 21, initial 5) was 7, the ABC-C stereotypy ([1]; PT LR, Day 21, initial 13) was 0 and the ABC-C irritability ([1]; PT LR, Day 21, initial 21) was 16. The ABC-C lethargy ([1]; PT LR, Day 21, initial 31) was 7, the ABC-C hyperactivity ([1]; PT LR, Day 21, initial 34) was 23 and the “ABC-C TOTAL” value ([1]; PT LR, Day 21, initial 114) was 53. For the same molecule, the ABC-C speech ([1]; PT LR, Day 28, initial 5) was 7, the ABC-C stereotypy ([1]; PT LR, Day 28, initial 13) was 0 and the ABC-C irritability ([1]; PT LR, Day 28, initial 21) was 16. For the same molecule, the ABC-C lethargy ([1]; PT LR, Day 28, initial 31) was 7, the ABC-C hyperactivity ([1]; PT LR, Day 28, initial 34) was 23 and the “ABC-C TOTAL” value ([1]; PT LR, Day 28, initial 114) was 53. It also gave an ABC irritability ([1]; Day 7) of 3, an ABC lethargy ([1]; Day 7) of 3 and an ABC speech ([1]; Day 7) of 3. For the same molecule, the ABC stereotypy ([1]; Day 7, initial 16) was 11, the ABC hyperactivity ([1]; Day 7, initial 20) was 8 and the “ABC TOTAL” value ([1]; Day 7) was 28. The ABC irritability ([1]; Day 14) was 1, the ABC lethargy ([1]; Day 14) was 1 and the ABC speech ([1]; Day 14) was 3. The ABC stereotypy ([1]; Day 14, initial 16) was 9, the ABC hyperactivity ([1]; Day 14, initial 20) was 6 and the “ABC TOTAL” value ([1]; Day 14) was 20. The ABC irritability ([1]; Day 21) was 1, the ABC lethargy ([1]; Day 21) was 1 and the ABC speech ([1]; Day 21) was 3. For the same molecule, the ABC stereotypy ([1]; Day 21, initial 16) was 9, the ABC hyperactivity ([1]; Day 21, initial 20) was 6 and the “ABC TOTAL” value ([1]; Day 21) was 20. For the same molecule, the ABC irritability ([1]; Day 28) was 1, the ABC lethargy ([1]; Day 28) was 1 and the ABC speech ([1]; Day 28) was 3. The ABC stereotypy ([1]; Day 28, initial 16) was 9, the ABC hyperactivity ([1]; Day 28, initial 20) was 6 and the “ABC TOTAL” value ([1]; Day 28) was 20. It also gave an ABC-C speech ([1]; PT WC, Day 7, initial 1) of 0, an ABC-C stereotypy ([1]; PT WC, Day 7, initial 12) of 7 and an ABC-C irritability ([1]; PT WC, Day 7, initial 16) of 4. The ABC-C hyperactivity ([1]; PT WC, Day 7, initial 20) was 10, the ABC-C lethargy ([1]; PT WC, Day 7, initial 21) was 9 and the “ABC-C TOTAL” value ([1]; PT WC, Day 7, initial 70) was 30. For the same molecule, the ABC-C speech ([1]; PT WC, Day 14, initial 1) was 0, the ABC-C stereotypy ([1]; PT WC, Day 14, initial 12) was 6 and the ABC-C irritability ([1]; PT WC, Day 14, initial 16) was 2. The ABC-C hyperactivity ([1]; PT WC, Day 14, initial 20) was 7, the ABC-C lethargy ([1]; PT WC, Day 14, initial 21) was 3 and the “ABC-C TOTAL” value ([1]; PT WC, Day 14, initial 70) was 18. It also gave an ABC-C speech ([1]; PT WC, Day 21, initial 1) of 0, an ABC-C stereotypy ([1]; PT WC, Day 21, initial 12) of 6 and an ABC-C irritability ([1]; PT WC, Day 21, initial 16) of 2. The ABC-C hyperactivity ([1]; PT WC, Day 21, initial 20) was 7, the ABC-C lethargy ([1]; PT WC, Day 21, initial 21) was 2 and the “ABC-C TOTAL” value ([1]; PT WC, Day 21, initial 70) was 17. The ABC-C speech ([1]; PT WC, Day 28, initial 1) was 0, the ABC-C stereotypy ([1]; PT WC, Day 28, initial 12) was 6 and the ABC-C irritability ([1]; PT WC, Day 28, initial 16) was 2. For the same molecule, the ABC-C hyperactivity ([1]; PT WC, Day 28, initial 20) was 7, the ABC-C lethargy ([1]; PT WC, Day 28, initial 21) was 2 and the “ABC-C TOTAL” value ([1]; PT WC, Day 28, initial 70) was 17. The “responder analysis for CGI-S” value ([2]; 100 mg and 200 mg groups vs placebo, Week 4) was “clear dose response trend of improvement”, the “mean improvement on overall CGI-S versus placebo and 100 mg groups” value ([2]; 200 mg group, Week 4 or LOCF) was 0.5 point and the “CGI-I Mean Change from Baseline” value ([2]; DB 100 mg TID) was −0.6. For the same molecule, the “CGI-I Treatment effect versus placebo” value ([2]; DB 100 mg TID) was −0.4, the “CGI-I change from Baseline, median” value ([2]; DB 100 mg TID) was −1, −1, 0 and the “CGI-S Mean Change from Baseline” value ([2]; DB 100 mg TID) was −0.3. The “CGI-S Treatment effect versus placebo” value ([2]; DB 100 mg TID) was −0.0, the “CGI-S change from Baseline, median” value ([2]; DB 100 mg TID) was −1, −0, 0 and the “CGI-I Mean Change from Baseline” value ([2]; DB 200 mg TID) was −0.5. The “CGI-I Treatment effect versus placebo” value ([2]; DB 200 mg TID) was −0.3, the “CGI-I change from Baseline, median” value ([2]; DB 200 mg TID) was −1, 0, 0 and the “CGI-S Mean Change from Baseline” value ([2]; DB 200 mg TID) was −0.8. For the same molecule, the “CGI-S Treatment effect versus placebo” value ([2]; DB 200 mg TID) was −0.5, the “CGI-S change from Baseline, median” value ([2]; DB 200 mg TID) was −2, −1, 0 and the “change in the CGI-S compared to baseline” value ([2]; less than one month of treatment, blinded assessment) was “nearly one-point change”.
